Experimental data: ChEMBL document CHEMBL1129339, “Mapping the aspartic acid binding site of Escherichia coli asparagine synthetase B using substrate analogs” (J Med Chem, 1996)

How the values were obtained:
[1] = tested on: Asparagine synthetase B (Escherichia coli); assay: Noncompetitive Inhibition constant of Asparagine synthetase of Glutamine-Dependent Synthetase Activity using glutamine as substrate
[2] = tested on: Asparagine synthetase B (Escherichia coli); assay: Noncompetitive Inhibition constant of Asparagine synthetase of Glutamine-Dependent Synthetase Activity using ATP as substrate
[3] = tested on: Asparagine synthetase B (Escherichia coli); assay: Noncompetitive Inhibition constant of Asparagine synthetase of Glutamine-Dependent Synthetase Activity using aspartate as substrate
[4] = tested on: Asparagine synthetase B (Escherichia coli); assay: Competitive Inhibition constant of Asparagine synthetase of Glutamine-Dependent Synthetase Activity using aspartate as substrate
[5] = tested on: Asparagine synthetase B (Escherichia coli); assay: Uncompetitive Inhibition constant of Asparagine synthetase of Glutamine-Dependent Synthetase Activity using glutamine as substrate
[6] = tested on: Asparagine synthetase B (Escherichia coli); assay: Non competitive Inhibition constant of Asparagine synthetase of Glutamine-Dependent Synthetase Activity using glutamine as substrate
[7] = tested on: Asparagine synthetase B (Escherichia coli); assay: Non competitive Inhibition constant of Asparagine synthetase of Glutamine-Dependent Synthetase Activity using ATP as substrate

SMILES | Kii [1] | Kis [1] | Kii [2] | Kis [2] | Kii [3] | Kis [3] | Kis [4] | Kii [5] | Kii [6] | Kis [6] | Kii [7] | Kis [7]
C[C@H](C(=O)O)[C@H](N)C(=O)O | 16.5 mM | 93 mM | 15 mM | 8 mM | > 50 mM | 18 mM | – | – | – | – | – | –
O=C(O)[C@H]1NCC[C@H]1C(=O)O | – | – | 4.8 mM | 2.65 mM | – | – | 2.65 mM | 2.57 mM | – | – | – | –
C[C@@H](C(=O)O)[C@H](N)C(=O)O (single isomer, unassigned) | – | – | – | – | – | – | 0.25 mM | – | 1.71 mM | 1.62 mM | 3.28 mM | 0.45 mM
